Laboratory results from PubChem BioAssay (NCI).
Several values for one entry are separate records, joined by “and”; a condition that tells them apart may be missing. Identical values can stand only once.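 Dose response: 5 concentrations. Exposure: 48 h. Format: 96-well plates. Endpoint: linear interpolation; highest concentration if not reached. Here, GI50 denotes the concentration required for 50% inhibition of growth. TGI marks complete inhibition of growth.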

What was measured:
Test in all cases: NCI-60 cell line screen, 48 h
[1] = system: NCI-H226 lung
[2] = system: SF-295 CNS
[3] = system: RPMI-8226 leukemia
[4] = system: UO-31 renal
[5] = system: MOLT-4 leukemia
[6] = system: SW-620 colon
[7] = system: K-562 leukemia
[8] = system: NCI/ADR-RES ovarian

SMILES | TGI [1] [µM] | TGI [2] [µM] | TGI [3] [µM] | TGI [4] [µM] | TGI [5] | TGI [6] | TGI [7] | TGI [8] [µM] | GI50 [1] [µM] | GI50 [2] [µM] | GI50 [3] [µM] | GI50 [4] | GI50 [5] | GI50 [6] | GI50 [7] | GI50 [8] [µM]
COc1ccc(C[C@H]2NC[C@H](O)[C@H]2OC(C)=O)cc1 | 0.242 | 0.0641 | 0.332 | 0.181 | 0.0642 µM | 0.15 µM | 0.11 µM | 0.369 | – | – | – | – | – | – | – | –
N#Cc1ccc(NC(=O)Nc2nc3ccc(OC(F)(F)F)cc3s2)cc1 | 10.4 | 4.22 | 13.3 | 7.92 | 13.4 µM | 12 µM | 26.1 µM | 8.39 | 1.98 | 1.18 | 1 | 1.67 µM | 1.88 µM | 1.61 µM | 0.534 µM | 1.55
Cc1cc(C)c(O)c(CNCCCNCc2cc(C)cc(C)c2O)c1 | 21.9 | 3.81 | 8.72 | 12.1 | 10.2 µM | 11 µM | 4.89 µM | 5.75 | 6.46 | 1.87 | 3.03 | 2.22 µM | 3.14 µM | 3.19 µM | 2.11 µM | 2.17
O=c1c(-c2nc3ccccc3[nH]2)cc2ccccc2n1Cc1cn(Cc2ccccc2Cl)nn1 | 6.99 | – | 10.8 | 2.88 | > 100 µM | 10.4 µM | 12.9 µM | 4.22 | 2.3 | – | 3.02 | 1.33 µM | 2.36 µM | 2.87 µM | 3.33 µM | 1.94
C=C(C)[C@@H]1CC[C@]2(CN)CC[C@]3(C)[C@H](CC[C@@H]4[C@@]5(C)CCC(N)[C@@](C)(CO)[C@@H]5CC[C@]43C)[C@@H]12 (some centres not stated) | 4.09 | 3.23 | 3.94 | 2.96 | 3.58 µM | 3.62 µM | 1.06 µM | 6.59 | 1.94 | 1.76 | 1.77 | 1.6 µM | 1.7 µM | 1.8 µM | 0.325 µM | 2.6
COCC(=O)NC/C=C/c1ccc2ncnc(Nc3ccc(Oc4ccc(C)nc4)c(C)c3)c2c1 | 69.3 | 38.1 | 36.1 | 35.9 | 53.8 µM | 40.9 µM | > 91.4 µM | 88.8 | 14.8 | 12.5 | 8.75 | 7.8 µM | 13.8 µM | 17.4 µM | 17.8 µM | 17.2
CC(=Nc1ccccc1)C1=C(O)C(Cc2ccc(F)cc2)NC1=O (configuration not stated) | > 100 | – | > 100 | > 100 | > 100 µM | > 100 µM | > 100 µM | 13.8 | 39.5 | – | 0.859 | 5.42 µM | 3.18 µM | 0.432 µM | 0.343 µM | 0.42
C[C@H](C(O)CC(=O)C(C)(C)O)[C@H]1CC[C@@]2(C)[C@@H]3CC[C@H]4C(C)(C)[C@@H](OC5OC(COC6OC(CO)C(O)C(O)C6O)C(O)C(O)C5O)CC[C@]4(C)C3=CC[C@]12C (some centres not stated) | > 100 | > 100 | > 100 | > 100 | – | > 100 µM | > 100 µM | – | – | – | – | – | – | – | – | –
Cc1ccc(-n2c3c(c4c(CN)c(O)ccc42)CCc2ccccc2C3=O)cc1 | 36.6 | 22.5 | 23.1 | 22.1 | 6.51 µM | 8.19 µM | – | 28.5 | 18.2 | 10.2 | 4.31 | 8.2 µM | 2.33 µM | 2.48 µM | – | 12.5
CN(C)C1C(=O)C(C(N)=O)=C(O)C2(O)C(=O)C3=C(O)c4c(O)cccc4C(C)(O)C3CC12 (configuration not stated) | > 100 | – | > 100 | > 100 | 46.5 µM and > 100 µM | 46.1 µM and > 100 µM | 48.5 µM and > 100 µM | > 100 | – | – | – | 41.9 µM and > 100 µM | 23.5 µM and > 100 µM | 23.3 µM and > 100 µM | 23.2 µM and > 100 µM | –
COc1cc2c(cc1OC)-c1ncc3cc(OC)c(OC)cc3c1C2 | – | > 50 | > 50 | > 50 | > 50 µM | > 50 µM | > 50 µM | > 50 | – | > 50 | 14 | > 50 µM | 25.4 µM | > 50 µM | > 50 µM | > 50
Cc1nc2ccccc2c(/C=C/c2ccccc2)c1C(=O)/C=C/c1ccccc1 | 5.27 | 8.36 | – | 2.61 | – | – | > 100 µM | 8.35 | 2.16 | 2.8 | – | 1.33 µM | – | – | 2.84 µM | 2.71
O=C(Nc1ccc(N2CCNCC2)cn1)c1[nH]ncc1Nc1ncnc2sccc12 | 9.05 | 28.9 | 6.71 | 32 | 7.64 µM | 3.19 µM | – | > 100 | 2.62 | 11.9 | 2.32 | 14.4 µM | 1.99 µM | 1.54 µM | – | > 100
COc1cc2c(cc1OC)-c1ncc3cc(OC)c(OC)c(OC)c3c1C2 | – | 53.8 | 23.1 | 53.6 | – | > 100 µM | 48.6 µM | 89.2 | – | 18.8 | 3.4 | 5.49 µM | – | 38.7 µM | 3.89 µM | 19.1
CCN(CC)CCOc1ccc(Cc2ccccc2)cc1 | > 100 | 31.4 | 76.1 | > 100 | – | 42.4 µM | – | > 100 | 69.7 | 13.2 | 20.7 | 18.4 µM | – | 17.4 µM | – | 26.2
COC(=O)CCCNC(=O)C(=O)c1c(O)c(O)c(C(C)C)c2cc(C)c(-c3c(C)cc4c(C(C)C)c(O)c(O)c(C(=O)C(=O)NCCCC(=O)OC)c4c3O)c(O)c12 | 2.94 | 5.22 | > 32.5 | 4.05 | – | 5.52 µM | 6.88 µM | 16.6 | 0.575 | 0.25 | 0.592 | 0.558 µM | – | 0.74 µM | 0.246 µM | 0.834
